Where a name gives a salt, the structure may show the parent alone. Marks after values point to notes of the source that are not given here.
Tests used:
Type in all cases: physicochemical
[1] = DVS (dynamic vapor sorption) moisture uptake; conditions: for Moisture Uptake (DVS): 25° C.; for form change after DVS test (XRPD): XRPD before and after DVS
Experimental: (FIG. 5). Sample weight decreased rapidly when humidity decreased from 10% to 0%, which might be caused by loss of crystalline water.
DVS was measured via a SMS (Surface Measurement Systems) DVS Intrinsic.

[2] = Grinding stability; conditions: ~30 mg ground manually in a mortar for about 5 minutes
[3] = Equilibrium solubility in pH buffers (3.0-8.0), 20% captisol and water; conditions: 24 hrs; for S: solubility: RT
Experimental: Additional solids were added into the sample to generate suspension if clear solution obtained. The suspension was equilibrated via stirring (1000 rpm). The suspension was centrifuged to obtain precipitate and supernatants.
Solubility and pH were tested for the supernatants after filtration, and isolated precipitate was tested by XRPD.
(§1) • 1. pH=3.0 buffer (50 mM HCl+KCl): Weigh 365.39 mg KCl into a 100 mL volumetric flask (VF), and add 0.1 mL 1M HCl into the VF, and dilute to volume with water. • 2. pH=4.0 buffer (50 mM citrate): Weigh 56.74 mg citric acid and 60.18 mg trisodium citrate into a 10 mL volumetric flask, and dilute to volume with water. • 3. pH=5.0 buffer (50 mM citrate) Weigh 11.12 mg citric acid and 95.38 mg trisodium citrate into a 10 mL volumetric flask, and dilute to volume with water. • 4. pH=6.0 buffer (50 mM citrate) Weigh 11.04 mg citric acid and 130.2 mg trisodium citrate into a 10 mL volumetric flask, and dilute to volume with water. • 5. pH=6.0 buffer (50 mM phosphate) Weigh 8.7 mg Na2HPO4 and 52.6 mg NaH2PO4 into a 10 mL volumetric flask, and dilute to volume with water. • 6. pH=7.0 buffer (50 mM phosphate) Weigh 23.47 mg Na2HPO4 and 43.34 mg NaH2PO4into a 10 mL volumetric flask, and dilute to volume with water. • 7. pH=8.0 buffer (50 mM phosphate) Weigh 31.64 mg Na2HPO4 and 67.18 mg NaH2PO4into a 10 mL volumetric flask, and dilute to volume with water.

[4] = Equilibrium solubility in pH buffers (pH 4.0-6.0) with pH adjustment; conditions: for S: solubility: with pH adjustment; for pH before adjustment (in brackets): 24 hours
Experimental: In details, ˜5 mg of solids were suspended into 1 mL of each medium with dosing conc. at ˜5 mg/mL. Additional solids were added into the sample to generate suspension if clear solution was obtained. The suspension was equilibrated via stirring (1000 rpm) for 24 hours. The pH of the suspension was adjusted when the final pH shifted above 0.3, and the samples were stirred for another 1.5 hours after pH adjustment. The suspension was centrifuged to obtain precipitate and supernatants. Solubility, purity and pH were tested for the supernatants after filtration, and isolated precipitate was tested by XRPD.
as §1

[5] = Approximate solubility at RT; conditions: CHCl3, RT, solvent for freeform isolation
Experimental: Four freeform isolation experiments were performed in different solvent with different acids. Solids were obtained in DCM/HCl and CHCl3/HCl system.
Approximately 2 mg solids were added into a 3-mL glass vial. Solvents in the following table were then added stepwise (50-50-200-700[…] for each step) into the vials and stirred until the solids were dissolved or a total volume of 1 mL was reached. The solubility results were used to guide the solvent selection in polymorph formation.

[6] = pH = 3.0 buffer (50 mM HCl + KCl)
[7] = pH = 4.0 buffer (50 mM citrate)
[8] = pH = 5.0 buffer (50 mM citrate)
[9] = pH = 6.0 buffer (50 mM citrate)
[10] = pH = 7.0 buffer (50 mM phosphate)
[11] = pH = 8.0 buffer (50 mM phosphate)
[12] = pH = 4.0 buffer (50 mM citrate), RT
[13] = pH = 5.0 buffer (50 mM citrate), RT
[14] = pH = 6.0 buffer (50 mM citrate), RT
[15] = pH = 6.0 buffer (50 mM phosphate)
[16] = pH = 6.0 buffer (50 mM phosphate), RT

SMILES: CC(=O)NCC1CCN(Cc2cc(Oc3ccc(N4CCN(CCC(=O)O)CC4)nc3)nc(-c3cc(Cl)cc(Cl)c3)c2)CC1 [Fumarate Type A]
- Moisture Uptake (DVS) ([1]; from 30% RH to 80% RH): 2.5 (from 30% RH to 80% RH)
- form change after DVS test (XRPD) [1]: crystallinity of fumarate Type A decreased
- crystallinity after grinding (XRPD) [2]: decreased after grinding
- pH of supernatant (final pH) ([3]; 20% Captisol (pH = 5.0, w/v)): 4.3
- S: solubility ([3]; 20% Captisol (pH = 5.0, w/v)): 29.6 mg/mL
- FC: form change (XRPD of precipitate) ([3]; H2O): 4 (1/2/3/4/5: new Form 1/2/3/4/5)
- pH of supernatant (final pH) ([3]; H2O): 3.8
- S: solubility ([3]; H2O): 1.85 mg/mL
- FC: form change (XRPD of precipitate) [3, 6]: 5 (1/2/3/4/5: new Form 1/2/3/4/5)
- pH of supernatant (final pH) [3, 6]: 3.5
- S: solubility [3, 6]: 0.65 mg/mL
- FC: form change (XRPD of precipitate) [3, 7]: 4 (1/2/3/4/5: new Form 1/2/3/4/5)
- pH of supernatant (final pH) [3, 7]: 4.1
- S: solubility [3, 7]: 3.45* mg/mL
- FC: form change (XRPD of precipitate) [3, 8]: 4 (1/2/3/4/5: new Form 1/2/3/4/5)
- pH of supernatant (final pH) [3, 8]: 4.8
- S: solubility [3, 8]: 7.79 mg/mL
- FC: form change (XRPD of precipitate) [3, 9]: 4 (1/2/3/4/5: new Form 1/2/3/4/5)
- pH of supernatant (final pH) [3, 9]: 5.1
- S: solubility [3, 9]: 20.6 mg/mL
- pH of supernatant (final pH) [3, 10]: 6.6
- S: solubility [3, 10]: 0.05 mg/mL
- pH of supernatant (final pH) [3, 11]: 7.2
- S: solubility [3, 11]: 0.02 mg/mL
- Area % (purity of supernatant) [4, 7]: 99.3 Area %
- FC: form change (XRPD of precipitate) [4, 7]: 4 (3/4/6/7/8: new Form 3/4/6/7/8)
- pH (final, after adjustment where adjusted) [4, 7]: 4.0
- S: solubility [4, 12]: 3040 µg/mL
- Area % (purity of supernatant) [4, 8]: 99.4 Area %
- FC: form change (XRPD of precipitate) [4, 8]: 4 (3/4/6/7/8: new Form 3/4/6/7/8)
- pH (final, after adjustment where adjusted) [4, 8]: 4.9*
- pH before adjustment (in brackets) [4, 8]: (4.1)
- S: solubility [4, 13]: 19300 µg/mL
- Area % (purity of supernatant) [4, 9]: 98.6 Area %
- FC: form change (XRPD of precipitate) [4, 9]: 7 (3/4/6/7/8: new Form 3/4/6/7/8)
- pH (final, after adjustment where adjusted) [4, 9]: 6.1*
- pH before adjustment (in brackets) [4, 9]: (5.0)
- S: solubility [4, 14]: 240 µg/mL
- Area % (purity of supernatant) [4, 15]: 95.6 Area %
- pH (final, after adjustment where adjusted) [4, 15]: 6.2*
- pH before adjustment (in brackets) [4, 15]: (4.6)
- S: solubility [4, 16]: 90 µg/mL

SMILES: CC(=O)NCC1CCN(Cc2cc(Oc3ccc(N4CCN(CCC(=O)O)CC4)nc3)nc(-c3cc(Cl)cc(Cl)c3)c2)CC1 [HCl salt Type F]
- Moisture Uptake (DVS) ([1]; from 20% RH to 80% RH): 1.4 (from 20% RH to 80% RH)
- form change after DVS test (XRPD) [1]: No form change
- crystallinity after grinding (XRPD) [2]: decreased after grinding
- solubility at 24 h ([3]; 50 mM pH buffers, pH 3.0-8.0, 21 °C, pH 3, aqueous buffer, thermodynamic from solid, 50 mM pH buffers pH 3.0-8.0, RT, read-out: solubility in pH buffers (overall bound)): < 8000 µg/mL
- pH of supernatant (final pH) ([3]; 20% Captisol (pH = 5.0, w/v)): 3.5
- S: solubility ([3]; 20% Captisol (pH = 5.0, w/v)): >48.0^1 mg/mL
- FC: form change (XRPD of precipitate) ([3]; H2O): 5 (1/2/3/4/5: new Form 1/2/3/4/5)
- pH of supernatant (final pH) ([3]; H2O): 2.4
- S: solubility ([3]; H2O): 4.24 mg/mL
- FC: form change (XRPD of precipitate) [3, 6]: 5 (1/2/3/4/5: new Form 1/2/3/4/5)
- pH of supernatant (final pH) [3, 6]: 2.7
- S: solubility [3, 6]: 2.77 mg/mL
- FC: form change (XRPD of precipitate) [3, 7]: Low (Low: low crystallinity)
- pH of supernatant (final pH) [3, 7]: 3.9
- S: solubility [3, 7]: 1.12 mg/mL
- FC: form change (XRPD of precipitate) [3, 8]: Low (Low: low crystallinity)
- pH of supernatant (final pH) [3, 8]: 5.0
- S: solubility [3, 8]: 2.64 mg/mL
- FC: form change (XRPD of precipitate) [3, 9]: A^
- pH of supernatant (final pH) [3, 9]: 5.8
- S: solubility [3, 9]: 0.62 mg/mL
- FC: form change (XRPD of precipitate) [3, 10]: A^+
- pH of supernatant (final pH) [3, 10]: 6.5
- S: solubility [3, 10]: 0.06 mg/mL
- FC: form change (XRPD of precipitate) [3, 11]: A^+
- pH of supernatant (final pH) [3, 11]: 7.2
- S: solubility [3, 11]: 0.02 mg/mL
- solubility at 24 h ([4]; 50 mM pH 4.0-6.0 buffers, pH 4, aqueous buffer, thermodynamic from solid, 50 mM pH 4.0-6.0 buffers with pH adjustment, RT, read-out: solubility in pH buffers (overall bound)): < 6800 µg/mL
- Area % (purity of supernatant) [4, 7]: 99.0 Area %
- FC: form change (XRPD of precipitate) [4, 7]: Low (Low; low crystallinity)
- pH (final, after adjustment where adjusted) [4, 7]: 4.0
- S: solubility [4, 12]: 1520 µg/mL
- Area % (purity of supernatant) [4, 8]: 99.6 Area %
- FC: form change (XRPD of precipitate) [4, 8]: Low (Low; low crystallinity)
- pH (final, after adjustment where adjusted) [4, 8]: 4.9
- S: solubility [4, 13]: 2320 µg/mL
- Area % (purity of supernatant) [4, 9]: 99.0 Area %
- FC: form change (XRPD of precipitate) [4, 9]: 8 (3/4/6/7/8: new Form 3/4/6/7/8)
- pH (final, after adjustment where adjusted) [4, 9]: 5.7
- S: solubility [4, 14]: 1150 µg/mL
- Area % (purity of supernatant) [4, 15]: 98.9 Area %
- FC: form change (XRPD of precipitate) [4, 15]: Low (Low; low crystallinity)
- pH (final, after adjustment where adjusted) [4, 15]: 5.9*
- pH before adjustment (in brackets) [4, 15]: (3.9)
- S: solubility [4, 16]: 430 µg/mL

SMILES: CC(=O)NCC1CCN(Cc2cc(Oc3ccc(N4CCN(CCC(=O)O)CC4)nc3)nc(-c3cc(Cl)cc(Cl)c3)c2)CC1 [starting material]
- Moisture Uptake (DVS) ([1]; from 10% RH to 80% RH): 0.7%
- form change after DVS test (XRPD) [1]: no form change
- solubility [5]: S > 50.5 mg/mL

Source: US20240307374A1, “FORMULATION OF FURIN INHIBITOR FOR INHALATION” (BP ASSET V, INC., priority 2021, published 2024)
